From ChEMBL document CHEMBL4507297, “Data for DCP probe PF-04457845” (2021)

Columns and labels:
[1] = target: Serine/threonine-protein kinase NIM1 (Homo sapiens) (UniProt Q8IY84); settings: Compound concentration 1000.0 nM
[2] = target: Ephrin type-A receptor 3 (Homo sapiens) (UniProt P29320); settings: Compound concentration 1000.0 nM
[3] = target: Serine/threonine-protein kinase PLK4 (Homo sapiens) (UniProt O00444); settings: Compound concentration 1000.0 nM
[4] = target: Serine/threonine-protein kinase PAK 2 (Homo sapiens) (UniProt Q13177); settings: Compound concentration 1000.0 nM
[5] = target: Transient receptor potential cation channel subfamily M member 6 (Homo sapiens) (UniProt Q9BX84); settings: Compound concentration 1000.0 nM
[6] = target: Serine/threonine-protein kinase SIK3 (Homo sapiens) (UniProt Q9Y2K2); settings: Compound concentration 1000.0 nM
[7] = target: NUAK family SNF1-like kinase 1 (Homo sapiens) (UniProt O60285); settings: Compound concentration 1000.0 nM
[8] = target: MAP kinase-activated protein kinase 2 (Homo sapiens) (UniProt P49137); settings: Compound concentration 1000.0 nM
[9] = target: Mitogen-activated protein kinase kinase kinase 7 (Homo sapiens) (UniProt O43318); settings: Compound concentration 1000.0 nM
[10] = target: Protein kinase C eta type (Homo sapiens) (UniProt P24723); settings: Compound concentration 1000.0 nM
[11] = target: Hormonally up-regulated neu tumor-associated kinase (Homo sapiens) (UniProt P57058); settings: Compound concentration 1000.0 nM
[12] = target: Cytoplasmic tyrosine-protein kinase BMX (Homo sapiens) (UniProt P51813); settings: Compound concentration 1000.0 nM
[13] = target: Cyclin-dependent kinase 19 (Homo sapiens) (UniProt Q9BWU1); settings: Compound concentration 1000.0 nM
[14] = target: Homeodomain-interacting protein kinase 4 (Homo sapiens) (UniProt Q8NE63); settings: Compound concentration 1000.0 nM
[15] = target: Casein kinase I isoform alpha-like (Homo sapiens) (UniProt Q8N752); settings: Compound concentration 1000.0 nM
[16] = target: STE20/SPS1-related proline-alanine-rich protein kinase (Homo sapiens) (UniProt Q9UEW8); settings: Compound concentration 1000.0 nM
[17] = target: Serine/threonine-protein kinase TAO3 (Homo sapiens) (UniProt Q9H2K8); settings: Compound concentration 1000.0 nM
[18] = target: Ephrin type-A receptor 8 (Homo sapiens) (UniProt P29322); settings: Compound concentration 1000.0 nM
[19] = target: Calcium/calmodulin-dependent protein kinase kinase 1 (Homo sapiens) (UniProt Q8N5S9); settings: Compound concentration 1000.0 nM
[20] = system: Phosphatidylinositol 4,5-bisphosphate 3-kinase catalytic subunit alpha isoform (Homo sapiens), P42336 [M1043I]; settings: Compound concentration 1000.0 nM
[21] = target: Serine/threonine-protein kinase Nek2 (Homo sapiens) (UniProt P51955); settings: Compound concentration 1000.0 nM
[22] = target: Muscarinic acetylcholine receptor M4 (Homo sapiens) (UniProt P08173); settings: Compound concentration 10.0 uM
[23] = target: Serine/threonine-protein kinase 24 (Homo sapiens) (UniProt Q9Y6E0); settings: Compound concentration 1000.0 nM
[24] = target: Tyrosine-protein kinase JAK3 (Homo sapiens) (UniProt P52333); settings: Compound concentration 1000.0 nM
[25] = target: Serine/threonine-protein kinase BRSK2 (Homo sapiens) (UniProt Q8IWQ3); settings: Compound concentration 1000.0 nM
[26] = target: Cyclin-dependent kinase 17 (Homo sapiens) (UniProt Q00537); settings: Compound concentration 1000.0 nM
[27] = target: Non-receptor tyrosine-protein kinase TYK2 (Homo sapiens) (UniProt P29597); settings: Compound concentration 1000.0 nM
[28] = target: Serine/threonine-protein kinase pim-2 (Homo sapiens) (UniProt Q9P1W9); settings: Compound concentration 1000.0 nM
[29] = target: cGMP-dependent protein kinase 2 (Homo sapiens) (UniProt Q13237); settings: Compound concentration 1000.0 nM
[30] = target: Serine/threonine-protein kinase Sgk3 (Homo sapiens) (UniProt Q96BR1); settings: Compound concentration 1000.0 nM
[31] = target: Tyrosine-protein kinase Srms (Homo sapiens) (UniProt Q9H3Y6); settings: Compound concentration 1000.0 nM
[32] = target: Cyclin-dependent kinase 11B (Homo sapiens) (UniProt P21127); settings: Compound concentration 1000.0 nM
[33] = system: Proto-oncogene tyrosine-protein kinase receptor Ret (Homo sapiens), P07949 [V804M]; settings: Compound concentration 1000.0 nM
[34] = target: Muscle, skeletal receptor tyrosine-protein kinase (Homo sapiens) (UniProt O15146); settings: Compound concentration 1000.0 nM
[35] = target: Serine/threonine-protein kinase WNK2 (Homo sapiens) (UniProt Q9Y3S1); settings: Compound concentration 1000.0 nM
[36] = system: Proto-oncogene tyrosine-protein kinase receptor Ret (Homo sapiens), P07949 [M918T]; settings: Compound concentration 1000.0 nM
[37] = system: Phosphatidylinositol 4,5-bisphosphate 3-kinase catalytic subunit alpha isoform (Homo sapiens), P42336 [I800L]; settings: Compound concentration 1000.0 nM
[38] = target: Receptor tyrosine-protein kinase erbB-3 (Homo sapiens) (UniProt P21860); settings: Compound concentration 1000.0 nM
[39] = target: Serine/threonine-protein kinase mTOR (Homo sapiens) (UniProt P42345); settings: Compound concentration 1000.0 nM
[40] = target: Cyclin-dependent kinase-like 3 (Homo sapiens) (UniProt Q8IVW4); settings: Compound concentration 1000.0 nM
[41] = system: Tyrosine-protein kinase ABL1 (Homo sapiens), P00519 [E255K]; settings: Compound concentration 1000.0 nM
[42] = target: Serine/threonine-protein kinase PLK2 (Homo sapiens) (UniProt Q9NYY3); settings: Compound concentration 1000.0 nM
[43] = target: Serine/threonine-protein kinase RIO1 (Homo sapiens) (UniProt Q9BRS2); settings: Compound concentration 1000.0 nM
[44] = target: Tyrosine-protein kinase receptor UFO (Homo sapiens) (UniProt P30530); settings: Compound concentration 1000.0 nM
[45] = target: Serine/threonine-protein kinase ULK3 (Homo sapiens) (UniProt Q6PHR2); settings: Compound concentration 1000.0 nM

Chain of Tyrosine-protein kinase Srms (Homo sapiens) (Q9H3Y6 whole entry): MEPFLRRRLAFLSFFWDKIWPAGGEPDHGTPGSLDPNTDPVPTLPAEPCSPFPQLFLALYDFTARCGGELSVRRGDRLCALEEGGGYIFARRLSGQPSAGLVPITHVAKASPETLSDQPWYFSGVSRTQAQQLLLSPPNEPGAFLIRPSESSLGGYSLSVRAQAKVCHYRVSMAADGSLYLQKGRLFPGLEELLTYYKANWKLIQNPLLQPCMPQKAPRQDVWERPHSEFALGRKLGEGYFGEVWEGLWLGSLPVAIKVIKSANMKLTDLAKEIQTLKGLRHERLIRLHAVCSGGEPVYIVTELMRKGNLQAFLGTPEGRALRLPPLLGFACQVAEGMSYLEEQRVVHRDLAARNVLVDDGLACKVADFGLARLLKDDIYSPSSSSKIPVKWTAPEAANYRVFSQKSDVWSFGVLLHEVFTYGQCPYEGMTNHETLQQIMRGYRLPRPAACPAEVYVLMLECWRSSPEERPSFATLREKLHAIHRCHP
Chain of Tyrosine-protein kinase ABL1 (Homo sapiens), P00519 [E255K] (P00519 whole entry E255K): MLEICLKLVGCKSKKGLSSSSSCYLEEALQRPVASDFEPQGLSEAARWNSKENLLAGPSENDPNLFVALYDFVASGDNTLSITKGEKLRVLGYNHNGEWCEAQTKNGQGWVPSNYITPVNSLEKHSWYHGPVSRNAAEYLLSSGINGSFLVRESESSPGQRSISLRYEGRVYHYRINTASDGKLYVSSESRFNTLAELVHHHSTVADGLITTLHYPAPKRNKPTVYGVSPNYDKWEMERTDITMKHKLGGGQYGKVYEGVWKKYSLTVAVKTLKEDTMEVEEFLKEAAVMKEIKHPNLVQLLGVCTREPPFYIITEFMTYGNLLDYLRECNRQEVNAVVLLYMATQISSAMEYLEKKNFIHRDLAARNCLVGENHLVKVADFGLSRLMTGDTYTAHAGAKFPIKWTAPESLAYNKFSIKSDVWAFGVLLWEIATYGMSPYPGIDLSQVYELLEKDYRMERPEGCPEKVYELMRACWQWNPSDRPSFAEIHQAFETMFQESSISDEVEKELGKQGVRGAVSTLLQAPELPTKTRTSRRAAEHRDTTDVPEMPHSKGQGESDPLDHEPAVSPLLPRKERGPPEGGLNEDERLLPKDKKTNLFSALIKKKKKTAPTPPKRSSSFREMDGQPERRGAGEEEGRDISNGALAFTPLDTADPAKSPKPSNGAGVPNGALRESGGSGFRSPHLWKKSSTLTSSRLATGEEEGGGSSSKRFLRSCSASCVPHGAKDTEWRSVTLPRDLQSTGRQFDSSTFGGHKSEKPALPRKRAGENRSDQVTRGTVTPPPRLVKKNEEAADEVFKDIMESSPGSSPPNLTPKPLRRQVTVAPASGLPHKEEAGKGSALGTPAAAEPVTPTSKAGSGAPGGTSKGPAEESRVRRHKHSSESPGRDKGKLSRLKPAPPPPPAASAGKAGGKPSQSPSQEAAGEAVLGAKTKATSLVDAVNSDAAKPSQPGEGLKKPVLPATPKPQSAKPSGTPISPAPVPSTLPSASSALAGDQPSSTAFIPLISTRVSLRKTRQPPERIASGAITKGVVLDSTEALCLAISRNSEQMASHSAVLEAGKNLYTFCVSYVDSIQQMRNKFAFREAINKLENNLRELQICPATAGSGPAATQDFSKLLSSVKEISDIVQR
Chain of Serine/threonine-protein kinase 24 (Homo sapiens) (Q9Y6E0 whole entry, looked up): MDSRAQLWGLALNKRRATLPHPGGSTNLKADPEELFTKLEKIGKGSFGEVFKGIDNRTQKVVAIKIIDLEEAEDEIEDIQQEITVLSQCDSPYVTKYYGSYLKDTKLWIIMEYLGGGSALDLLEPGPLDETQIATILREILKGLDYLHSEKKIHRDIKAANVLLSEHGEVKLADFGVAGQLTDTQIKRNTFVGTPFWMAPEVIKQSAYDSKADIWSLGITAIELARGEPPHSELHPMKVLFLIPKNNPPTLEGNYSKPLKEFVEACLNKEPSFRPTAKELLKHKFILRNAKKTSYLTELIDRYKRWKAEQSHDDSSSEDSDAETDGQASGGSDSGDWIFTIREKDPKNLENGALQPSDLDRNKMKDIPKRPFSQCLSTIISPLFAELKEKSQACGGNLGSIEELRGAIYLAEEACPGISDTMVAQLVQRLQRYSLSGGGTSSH
Chain of Serine/threonine-protein kinase NIM1 (Homo sapiens) (Q8IY84 whole entry): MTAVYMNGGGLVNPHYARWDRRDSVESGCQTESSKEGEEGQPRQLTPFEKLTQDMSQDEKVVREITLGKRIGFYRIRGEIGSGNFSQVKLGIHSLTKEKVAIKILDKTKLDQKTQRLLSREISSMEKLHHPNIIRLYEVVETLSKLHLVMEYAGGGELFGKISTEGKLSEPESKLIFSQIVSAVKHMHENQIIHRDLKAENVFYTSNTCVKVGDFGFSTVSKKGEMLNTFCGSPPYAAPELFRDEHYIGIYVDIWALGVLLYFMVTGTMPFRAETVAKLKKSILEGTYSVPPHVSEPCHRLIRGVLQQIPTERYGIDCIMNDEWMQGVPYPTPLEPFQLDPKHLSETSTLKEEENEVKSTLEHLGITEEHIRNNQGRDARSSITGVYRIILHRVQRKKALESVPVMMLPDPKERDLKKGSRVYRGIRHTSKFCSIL
Chain of Non-receptor tyrosine-protein kinase TYK2 (Homo sapiens) (P29597 whole entry): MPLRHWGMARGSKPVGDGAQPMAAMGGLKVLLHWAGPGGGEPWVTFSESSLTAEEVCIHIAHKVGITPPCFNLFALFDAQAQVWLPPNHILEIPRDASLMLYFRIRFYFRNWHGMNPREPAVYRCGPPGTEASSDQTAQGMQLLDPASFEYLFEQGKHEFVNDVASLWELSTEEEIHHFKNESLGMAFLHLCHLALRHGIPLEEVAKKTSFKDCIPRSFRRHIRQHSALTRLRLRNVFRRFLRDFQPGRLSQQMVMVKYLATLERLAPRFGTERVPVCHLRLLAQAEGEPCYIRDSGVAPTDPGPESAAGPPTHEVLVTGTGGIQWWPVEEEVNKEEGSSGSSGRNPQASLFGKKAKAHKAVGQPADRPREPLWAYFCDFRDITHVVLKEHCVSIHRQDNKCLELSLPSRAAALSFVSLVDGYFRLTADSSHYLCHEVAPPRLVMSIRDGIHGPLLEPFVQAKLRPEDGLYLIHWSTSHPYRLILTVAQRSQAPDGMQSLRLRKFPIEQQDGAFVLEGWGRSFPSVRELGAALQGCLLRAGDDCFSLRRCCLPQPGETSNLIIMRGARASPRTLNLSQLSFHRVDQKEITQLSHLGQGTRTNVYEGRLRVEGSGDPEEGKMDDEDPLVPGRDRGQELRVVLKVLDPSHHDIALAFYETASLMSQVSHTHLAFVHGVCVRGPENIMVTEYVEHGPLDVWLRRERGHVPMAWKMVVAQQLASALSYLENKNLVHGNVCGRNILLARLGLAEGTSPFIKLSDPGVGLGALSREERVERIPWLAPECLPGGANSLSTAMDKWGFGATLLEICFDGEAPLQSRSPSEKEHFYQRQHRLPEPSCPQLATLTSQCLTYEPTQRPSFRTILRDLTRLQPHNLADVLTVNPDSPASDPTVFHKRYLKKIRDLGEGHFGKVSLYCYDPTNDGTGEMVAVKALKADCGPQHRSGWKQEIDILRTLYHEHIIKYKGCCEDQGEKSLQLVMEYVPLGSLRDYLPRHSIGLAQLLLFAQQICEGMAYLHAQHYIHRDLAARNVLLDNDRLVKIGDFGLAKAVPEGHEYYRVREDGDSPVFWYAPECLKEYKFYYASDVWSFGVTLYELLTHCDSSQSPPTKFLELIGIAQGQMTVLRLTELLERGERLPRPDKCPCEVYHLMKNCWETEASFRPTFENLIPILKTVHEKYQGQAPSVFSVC
Chain of Mitogen-activated protein kinase kinase kinase 7 (Homo sapiens) (O43318 whole entry): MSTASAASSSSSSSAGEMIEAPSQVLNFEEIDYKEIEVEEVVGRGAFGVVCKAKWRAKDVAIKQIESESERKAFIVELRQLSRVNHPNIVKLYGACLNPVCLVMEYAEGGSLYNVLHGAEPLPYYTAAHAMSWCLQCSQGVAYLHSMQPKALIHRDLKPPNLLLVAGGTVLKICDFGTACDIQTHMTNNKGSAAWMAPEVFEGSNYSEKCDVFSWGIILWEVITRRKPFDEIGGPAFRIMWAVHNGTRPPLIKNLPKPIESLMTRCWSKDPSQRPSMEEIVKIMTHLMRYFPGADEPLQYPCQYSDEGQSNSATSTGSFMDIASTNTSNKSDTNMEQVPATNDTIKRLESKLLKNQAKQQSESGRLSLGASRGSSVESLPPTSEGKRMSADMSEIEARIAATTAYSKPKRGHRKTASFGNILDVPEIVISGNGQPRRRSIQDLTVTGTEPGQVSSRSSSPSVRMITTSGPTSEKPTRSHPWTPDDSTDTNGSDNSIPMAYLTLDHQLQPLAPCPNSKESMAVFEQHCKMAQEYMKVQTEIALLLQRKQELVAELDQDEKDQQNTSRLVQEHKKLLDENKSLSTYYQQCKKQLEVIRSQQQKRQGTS
Chain of Cyclin-dependent kinase 17 (Homo sapiens) (Q00537 whole entry, looked up): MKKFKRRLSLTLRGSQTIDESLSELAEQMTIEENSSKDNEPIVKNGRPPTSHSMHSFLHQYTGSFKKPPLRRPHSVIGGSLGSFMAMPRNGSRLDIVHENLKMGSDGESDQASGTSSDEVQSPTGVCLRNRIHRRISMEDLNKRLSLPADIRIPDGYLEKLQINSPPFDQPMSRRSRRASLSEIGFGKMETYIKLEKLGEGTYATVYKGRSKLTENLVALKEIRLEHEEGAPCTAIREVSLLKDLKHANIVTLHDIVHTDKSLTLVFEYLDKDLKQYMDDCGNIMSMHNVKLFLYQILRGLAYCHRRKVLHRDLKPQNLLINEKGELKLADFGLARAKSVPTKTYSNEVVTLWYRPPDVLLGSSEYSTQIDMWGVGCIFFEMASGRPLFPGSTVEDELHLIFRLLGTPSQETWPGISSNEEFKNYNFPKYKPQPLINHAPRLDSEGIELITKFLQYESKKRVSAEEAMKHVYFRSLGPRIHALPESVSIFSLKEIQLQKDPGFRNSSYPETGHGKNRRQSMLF

O=C(Nc1cccnn1)N1CCC(=Cc2cccc(Oc3ccc(C(F)(F)F)cn3)c2)CC1 was tested, and the residual activity [1] was 100%, the residual activity [2] was 100% and the residual activity [3] was 100%. The residual activity [4] was 83%, the residual activity [5] was 98% and the residual activity [6] was 83%. It also gave a residual activity [7] of 86%, a residual activity [8] of 87% and a residual activity [9] of 100%. The residual activity [10] was 77%, the residual activity [11] was 87% and the residual activity [12] was 71%. The residual activity [13] was 100%, the residual activity [14] was 100% and the residual activity [15] was 76%. The residual activity [16] was 100%, the residual activity [17] was 42% and the residual activity [18] was 100%. For the same compound, the residual activity [19] was 92%, the residual activity [20] was 65% and the residual activity [21] was 100%. The inhibition [22] was 7.38%, the residual activity [23] was 100% and the residual activity [24] was 100%. It also gave a residual activity [25] of 90%, a residual activity [26] of 100% and a residual activity [27] of 100%. For the same compound, the residual activity [28] was 97%, the residual activity [29] was 100% and the residual activity [30] was 93%. The residual activity [31] was 95%, the residual activity [32] was 100% and the residual activity [33] was 100%. The residual activity [34] was 100%, the residual activity [35] was 92% and the residual activity [36] was 80%. The residual activity [37] was 100%, the residual activity [38] was 84% and the residual activity [39] was 87%. It also gave a residual activity [40] of 81%, a residual activity [41] of 85% and a residual activity [42] of 100%. The residual activity [43] was 100%, the residual activity [44] was 100% and the residual activity [45] was 100%.

Compound O=C(Nc1cccnn1)N1CC(C/C=C/c2cncc(Oc3ccc(C(F)(F)F)cn3)n2)C1 has a residual activity [1] of 76%, a residual activity [2] of 95% and a residual activity [3] of 98%. It also gave a residual activity [4] of 95%, a residual activity [5] of 73% and a residual activity [6] of 74%. It also gave a residual activity [7] of 100%, a residual activity [8] of 100% and a residual activity [9] of 93%. The residual activity [10] was 100%, the residual activity [11] was 89% and the residual activity [12] was 100%. For the same compound, the residual activity [13] was 84%, the residual activity [14] was 92% and the residual activity [15] was 100%. For the same compound, the residual activity [16] was 77%, the residual activity [17] was 82% and the residual activity [18] was 100%. It also gave a residual activity [19] of 100%, a residual activity [20] of 100% and a residual activity [21] of 100%. The inhibition [22] was -7.53%, the residual activity [23] was 98% and the residual activity [24] was 100%. For the same compound, the residual activity [25] was 100%, the residual activity [26] was 100% and the residual activity [27] was 79%. It also gave a residual activity [28] of 100%, a residual activity [29] of 91% and a residual activity [30] of 87%. It also gave a residual activity [31] of 67%, a residual activity [32] of 100% and a residual activity [33] of 100%. The residual activity [34] was 97%, the residual activity [35] was 0% and the residual activity [36] was 96%. It also gave a residual activity [37] of 91%, a residual activity [38] of 99% and a residual activity [39] of 100%. The residual activity [40] was 95%, the residual activity [41] was 81% and the residual activity [42] was 60%. For the same compound, the residual activity [43] was 100%, the residual activity [44] was 100% and the residual activity [45] was 82%.
